# Reference: patent US11066392B2, “Inhibitors of indoleamine 2,3-dioxygenase and methods of their use” (BRISTOL-MYERS SQUIBB COMPANY, priority 2017, dated 2021)
# Biological target: indoleamine 2,3-dioxygenase (IDO) (Homo sapiens, UniProt P14902)
# Assay: HeLa cell-based indoleamine 2,3-dioxygenase (IDO) assay (kynurenine production, IFNγ-stimulated)
# Conditions: HeLa cells, IFNγ 25 ng/mL, 48 hour incubation; read-out: IDO Hela IC50
# Method: Assessment of inhibitor activity in HeLa cell-based indoleamine 2,3-dioxygenase (IDO) assay. HeLa (ATCC® CCL-2) cells were obtained from the ATCC® and cultured in Dulbecco's Modified Eagle Medium supplemented with 4.5 g/L glucose, 4.5 […] sodium pyruvate (#10-013-CV, Corning), 2 mM L-alanyl-L-glutamine dipeptide (#35050-061, Gibco), 100U/mL penicillin, 100 μg/mL streptomycin (#SV30010, HyClone) and 10% fetal bovine serum (#SH30071.03 HyClone). Cells were maintained in a humidified incubator at 37° C. in 5% CO2. […] After 24 hours, the media was aspirated and replaced with media containing IFNγ (#285-IF/CF, R&D Systems) at a final concentration of 25 ng/mL. A serial dilution of each test compound was added to the cells in a total volume of 200 μL of culture medium. After a further 48 hour incubation, 170 μL of supernatant was transferred from each well to a fresh 96-well plate. 12.1 μL of 6.1N trichloroacetic acid (#T0699, Sigma-Aldrich) was added to each well and mixed, followed by incubation at 65° C. for 20 minutes to hydrolyze N-formylkynurenine, the product of indoleamine 2,3-dioxygenase, to kynurenine. The reaction mixture was then centrifuged for 10 mins at 500×g to sediment the precipitate. 100 μL of the supernatant was transferred from each well to a fresh 96-well plate. 100 μl of 2% (w/v) p-dimethylaminobenzaldehyde (#15647-7, Sigma-Aldrich) in acetic acid (#A6283, Sigma-Aldrich) was added to each well mixed and incubated at room temperature for 20 mins. Kynurenine concentrations were determined by measuring absorbance at 480 nm and calibrating against an L-kynurenine (#K8625, Sigma-Aldrich) standard curve using a SPECTRAMAX® M2e microplate reader (Molecular Devices). The percentage activity at each inhibitor concentration was determined and IC50 values assessed using nonlinear regression. Activity for compounds described herein is provided in Table 1, wherein potency levels are provided as follows: (Potency: IDO IC50: […])
# Chain of indoleamine 2,3-dioxygenase (IDO) (P14902 whole entry): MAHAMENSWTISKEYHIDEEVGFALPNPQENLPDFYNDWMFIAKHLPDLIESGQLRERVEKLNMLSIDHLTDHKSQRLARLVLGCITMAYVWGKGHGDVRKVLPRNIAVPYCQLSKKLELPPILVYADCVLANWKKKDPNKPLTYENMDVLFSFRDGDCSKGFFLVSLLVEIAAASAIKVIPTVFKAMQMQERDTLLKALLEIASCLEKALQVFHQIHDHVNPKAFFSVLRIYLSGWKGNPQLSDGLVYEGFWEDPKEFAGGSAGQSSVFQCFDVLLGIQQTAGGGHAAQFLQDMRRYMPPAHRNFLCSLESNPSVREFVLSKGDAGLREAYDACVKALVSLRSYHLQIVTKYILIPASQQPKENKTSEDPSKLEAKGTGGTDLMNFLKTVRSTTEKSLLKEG
row,IC50 [nM],SMILES
1,940,"CCOC[C@@H](NC(=O)c1ccc(OC)nc1)[C@H]1CC[C@@H](c2ccnc3ccc(C(F)(F)F)cc32)CC1 (single isomer, unassigned) [Example 13d, N-(2-Ethoxy-1-(4-(6-(trifluoromethyl)quinolin-4-yl)cyclohexyl)ethyl)-6-methoxynicotinamide]"
2,240,"CC[C@@H](NC(=O)c1ccc(OC)nc1)[C@H]1CC[C@@H](c2cnc3ccccc3c2)CC1 (single isomer, unassigned) [Example 20c, 6-Methoxy-N-(1-(4-(quinolin-3-yl)cyclohexyl)propyl)nicotinamide]"
3,250,"CCC(NC(=O)c1ccc(OC)nc1)C1CCC(c2ccnc(OC(F)F)c2)CC1 (single isomer, unassigned) [Example 30d, N-(1-(4-(2-(Difluoromethoxy)pyridin-4-yl)cyclohexyl)propyl)-6-methoxynicotinamide]"
4,20,"CC[C@H](NC(=O)c1cnc(C)nc1)[C@H]1CC[C@H](c2ccnc3c(F)cccc32)CC1 (single isomer, unassigned) [Example 61d, N-(1-(4-(8-fluoroquinolin-4-yl)cyclohexyl)propyl)-2-methylpyrimidine-5-carboxamide]"
5,900,"CCC(NC(=O)c1ccc(OC)nc1)C1CCC(c2ccnc(OC)c2C(F)F)CC1 (single isomer, unassigned) [Example 24b, N-(1-((1s,4s)-4-(3-(Difluoromethyl)-2-methoxypyridin-4-yl)cyclohexyl)propyl)-6-methoxynicotinamide]"
6,20,"CCC(NC(=O)c1ccc(OC)nc1)C1CCC(c2ccnc(OC(F)F)c2)CC1 (single isomer, unassigned) [Example 30b, N-(1-(4-(2-(Difluoromethoxy)pyridin-4-yl)cyclohexyl)propyl)-6-methoxynicotinamide]"
7,80,"CCC(NC(=O)c1ccc(OC)nc1)C1CCC(c2cccc(=O)n2C)CC1 (single isomer, unassigned) [Example 32b, 6-Methoxy-N-(1-(4-(1-methyl-6-oxo-1,6-dihydropyridin-2-yl)cyclohexyl)propyl)nicotinamide]"
8,330,"CCC(NC(=O)c1ccc(OC)nc1)C1CCC(c2cccc(C)n2)CC1 (single isomer, unassigned) [Example 46a, 6-methoxy-N-(1-(4-(6-methylpyridin-2-yl)cyclohexyl)propyl)nicotinamide]"
9,10,"CCC(NC(=O)c1ccc(N)nc1)[C@H]1CC[C@@H](c2ccnc(OC)c2C)CC1 (single isomer, unassigned) [Example 29b, 6-Amino-N-(1-((1s,4s)-4-(2-methoxy-3-methylpyridin-4-yl)cyclohexyl)propyl)nicotinamide]"
10,360,"CCC(NC(=O)c1ccc(OC)nc1)C1CCC(c2cccc(OC(F)F)n2)CC1 (single isomer, unassigned) [Example 48a, N-(1-(4-(6-(difluoromethoxy)pyridin-2-yl)cyclohexyl)propyl)-6-methoxynicotinamide]"
11,10,"CCC(NC(=O)c1cnc(OC)nc1)[C@H]1CC[C@@H](c2ccnc(OC)c2C(F)F)CC1 (single isomer, unassigned) [Example 25b, N-(1-((1s,4s)-4-(3-(Difluoromethyl)-2-methoxypyridin-4-yl)cyclohexyl)propyl)-2-methoxypyrimidine-5-carboxamide]"
12,110,"CCC(NC(=O)c1cnc(C)nc1)C1CCC(c2ccnc(OC)c2F)CC1 (stereo not shown) [Example 23, N-(1-(4-(3-Fluoro-2-methoxypyridin-4-yl)cyclohexyl)propyl)-2-methylpyrimidine-5-carboxamide]"
13,110,"CC[C@@H](NC(=O)c1ccc(OC)nc1)[C@H]1CC[C@@H](c2ccnc3c(F)cccc32)CC1 (single isomer, unassigned) [Example 59d, N-(1-(4-(8-fluoroquinolin-4-yl)cyclohexyl)propyl)-6-methoxynicotinamide]"
14,250,"CC[C@@H](NC(=O)c1cnc(OC)nc1)[C@H]1CC[C@@H](c2ccnc3c(F)cccc32)CC1 (single isomer, unassigned) [Example 60b, N-(1-(4-(8-fluoroquinolin-4-yl)cyclohexyl)propyl)-2-methoxypyrimidine-5-carboxamide]"
15,10,"COc1ccc(C(=O)NC(CC#N)[C@H]2CC[C@@H](c3ccnc4ccc(F)cc43)CC2)cn1 (mixture of isomers) [Example 54, Cis or trans-N-(2-cyano-1-((1s,4s)-4-(6-fluoroquinolin-4-yl)cyclohexyl)ethyl)-6-methoxynicotinamide]"
16,670,"CC[C@H](NC(=O)c1cnc(C)nc1)[C@H]1CC[C@H](c2ccnc3c(F)cccc32)CC1 (single isomer, unassigned) [Example 61b, N-(1-(4-(8-fluoroquinolin-4-yl)cyclohexyl)propyl)-2-methylpyrimidine-5-carboxamide]"
17,100,"COC[C@H](NC(=O)c1ccc(OC)nc1)[C@H]1CC[C@@H](c2ccnc(OC)c2C(F)F)CC1 (single isomer, unassigned) [Example 51d, N-(1-(4-(3-(difluoromethyl)-2-methoxypyridin-4-yl)cyclohexyl)-2-methoxyethyl)-6-methoxynicotinamide]"
18,80,"COCC(NC(=O)c1ccc(OC)nc1)C1CCC(c2ccnc3ccc(C(F)(F)F)cc23)CC1 (single isomer, unassigned) [Example 12a, 6-Methoxy-N-(2-methoxy-1-((1s,4s)-4-(6-(trifluoromethyl)quinolin-4-yl)cyclohexyl)ethyl)nicotinamide]"

# Same assay, conditions: HeLa cells; potency class; read-out: Patent Potency Hela IC50 A < 10 nM, B > 10 nM, C > 100 nM
row,IC50 [nM],SMILES
1,< 10,"CCC(NC(=O)c1ccc(OC)nc1)C1CCC(c2ccnc3c(C(F)(F)F)cccc23)CC1 (single isomer, unassigned) [Example 18b, 6-Methoxy-N-(1-((1s,4s)-4-(8-(trifluoromethyl)quinolin-4-yl)cyclohexyl)propyl)nicotinamide]"
2,< 10,"COCC(NC(=O)c1ccc(OC)nc1)C1CCC(c2ccnc3ccc(F)cc23)CC1 (stereo not shown) [Example 14a, N-(1-((1s,4s)-4-(6-Fluoroquinolin-4-yl)cyclohexyl)-2-methoxyethyl)-6-methoxynicotinamide]"
3,< 10,"CCC(NC(=O)c1ccc(OC)nc1)C1CCC(c2ccnc3ccc(C(F)(F)F)cc23)CC1 (single isomer, unassigned) [Example 11b, 6-Methoxy-N-(1-((1s,4s)-4-(6-(trifluoromethyl)quinolin-4-yl)cyclohexyl)propyl)nicotinamide]"
4,> 100,"[2H]C([2H])([2H])Oc1ccc(C(=O)NC(CC)C2CCC(c3ccnc(OC)c3C(F)F)CC2)cn1 (single isomer, unassigned) [Example 66-1, N-(1-((1s,4s)-4-(3-(difluoromethyl)-2-methoxypyridin-4-yl)cyclohexyl)propyl)-6-(methoxy-d3)nicotinamide]"
5,> 100,"CCC(NC(=O)c1ccc(OC)nc1)C1CCC(c2cccc(C(F)(F)F)n2)CC1 (single isomer, unassigned) [Example 47b, 6-methoxy-N-(1-(4-(6-(trifluoromethyl)pyridin-2-yl)cyclohexyl)propyl)nicotinamide]"
6,> 100,"CCC(NC(=O)c1ccc(OC)nc1)C1CCC(c2cccc(C)n2)CC1 (single isomer, unassigned) [Example 46c, 6-methoxy-N-(1-(4-(6-methylpyridin-2-yl)cyclohexyl)propyl)nicotinamide]"
7,< 10,"[2H]C([2H])([2H])Oc1ccc(C(=O)NC(CC)C2CCC(c3ccnc(OC)c3C(F)F)CC2)cn1 (single isomer, unassigned) [Example 66-2, N-(1-((1s,4s)-4-(3-(difluoromethyl)-2-methoxypyridin-4-yl)cyclohexyl)propyl)-6-(methoxy-d3)nicotinamide]"
8,> 10,"CCC(NC(=O)c1ccc(OC)nc1)C1CCC(c2ccnc(F)c2C)CC1 (single isomer, unassigned) [Example 68-1, N-(1-((1r,4r)-4-(2-Fluoro-3-methylpyridin-4-yl)cyclohexyl)propyl)-6-methoxynicotinamide]"
9,> 100,"CCC(NC(=O)c1ccc(OC)nc1)C1CCC(c2cccc(=O)n2C)CC1 (single isomer, unassigned) [Example 32a, 6-Methoxy-N-(1-(4-(1-methyl-6-oxo-1,6-dihydropyridin-2-yl)cyclohexyl)propyl)nicotinamide]"
10,> 100,"COc1ccc(C(=O)N[C@H](CC2(C)COC2)[C@H]2CC[C@@H](c3ccnc4ccc(C(F)(F)F)cc43)CC2)cn1 (single isomer, unassigned) [Example 17d, 6-Methoxy-N-(2-(3-methyloxetan-3-yl)-1-(4-(6-(trifluoromethyl)quinolin-4-yl)cyclohexyl)ethyl)nicotinamide]"
